Data from ChEMBL document CHEMBL3853328, “A molecular dynamics simulation investigation of the relative stability of the cyclic peptide octreotide and its deprotonated and its (CF3)-Trp substituted analogs in different solvents” (Bioorg Med Chem, 2016).

Target: Somatostatin receptor type 2 (Homo sapiens, UniProt P30874)
Experiment: Binding affinity to human SST2 receptor

Chain of Somatostatin receptor type 2 (P30874 whole entry): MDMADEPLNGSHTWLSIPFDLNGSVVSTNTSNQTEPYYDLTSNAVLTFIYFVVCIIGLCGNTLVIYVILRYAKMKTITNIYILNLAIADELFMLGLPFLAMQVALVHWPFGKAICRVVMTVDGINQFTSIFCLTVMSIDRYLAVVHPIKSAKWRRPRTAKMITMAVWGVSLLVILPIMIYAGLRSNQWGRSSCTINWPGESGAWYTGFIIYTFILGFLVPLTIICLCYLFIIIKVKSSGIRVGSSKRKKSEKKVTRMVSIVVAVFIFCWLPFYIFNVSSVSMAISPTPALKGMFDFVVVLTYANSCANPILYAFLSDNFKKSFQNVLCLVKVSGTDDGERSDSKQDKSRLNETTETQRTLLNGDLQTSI

Kd: 0.0155 µM
SMILES: C[C@@H](O)[C@H](CO)NC(=O)[C@@H]1CSSC[C@H](NC(=O)[C@H](N)Cc2ccccc2)C(=O)N[C@@H](Cc2ccccc2)C(=O)N[C@H](Cc2c(C(F)(F)F)[nH]c3ccccc23)C(=O)N[C@@H](CCCCN)C(=O)N[C@@H]([C@@H](C)O)C(=O)N1
